From PubChem BioAssay (NCI)
Several values for one entry are separate records, joined by “and”; a condition that tells them apart may be missing. Identical values can stand only once.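 Dose response: 5 concentrations. Exposure: 48 h. Format: 96-well plates. Endpoint: linear interpolation; highest concentration if not reached. GI50 marks 50% less growth. TGI marks complete inhibition of growth.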

Experiments:
Test in all cases: DTP human tumour cell line panel, 48 h
DLD-1 colon = tested on: DLD-1 colon
SK-MEL-2 melanoma = tested on: SK-MEL-2 melanoma
HL-60(TB) leukemia = tested on: HL-60(TB) leukemia
CAKI-1 renal = tested on: CAKI-1 renal
HCC-2998 colon = tested on: HCC-2998 colon
ACHN renal = tested on: ACHN renal
SF-295 CNS = tested on: SF-295 CNS
UACC-257 melanoma = tested on: UACC-257 melanoma
M19-MEL melanoma = tested on: M19-MEL melanoma
HS 578T breast = tested on: HS 578T breast

Q: Which results are given for `CC(=O)O[C@H]1[C@@H]2[C@@H]3[C@@H](C[C@H]1C)[C@@H](C)CO[C@@]1(C)CC/C=C(/C)C[C@@H]2O[C@@H]31`?
A: TGI (DLD-1 colon): > 100 µM; TGI (SK-MEL-2 melanoma): > 100 µM; TGI (HL-60(TB) leukemia): > 100 µM; TGI (CAKI-1 renal): > 100 µM; TGI (HCC-2998 colon): > 100 µM; TGI (ACHN renal): > 100 µM; TGI (SF-295 CNS): > 100 µM; TGI (UACC-257 melanoma): > 100 µM; TGI (M19-MEL melanoma): > 100 µM

Q: For `Cc1ccc(NC(=O)CC(=O)n2nc(-c3ccccc3)c(N=Nc3ccc(Cl)cc3)c2-c2ccccc2)cc1`, which TGI (DLD-1 colon) is on record?
A: 54.4 µM

Q: What about the TGI (SK-MEL-2 melanoma) of the same compound?
A: > 100 µM

Q: What about the TGI (HL-60(TB) leukemia) of the same compound?
A: 17.7 µM

Q: And the TGI (CAKI-1 renal)?
A: > 100 µM

Q: What about the TGI (HCC-2998 colon) of the same compound?
A: > 100 µM

Q: What about the TGI (ACHN renal) of the same compound?
A: > 100 µM

Q: And the TGI (SF-295 CNS)?
A: > 100 µM

Q: What about the TGI (UACC-257 melanoma) of the same compound?
A: > 100 µM

Q: And the TGI (M19-MEL melanoma)?
A: 60.4 µM

Q: Which results are given for `CO[C@H]1[C@H](O)[C@H](O[C@H]2CC[C@@]3(C)[C@H](CC[C@@H]4[C@@H]3CC[C@]3(C)[C@@H](C5=CC(=O)OC5)CC[C@]43O)C2)O[C@@H](C)[C@@H]1O`?
A: TGI (DLD-1 colon): 0.00767 µM; TGI (SK-MEL-2 melanoma): 0.00476 µM and < 0.0175 µM; GI50 (HL-60(TB) leukemia): 0.00175 µM; TGI (HL-60(TB) leukemia): 0.00363 µM; TGI (CAKI-1 renal): 0.00156 µM; TGI (HCC-2998 colon): 0.0584 µM and 0.0399 µM; TGI (ACHN renal): 0.00152 µM; TGI (HS 578T breast): < 0.0001 µM; TGI (SF-295 CNS): 0.00224 µM and < 0.0107 µM; TGI (UACC-257 melanoma): 0.00571 µM and < 0.0137 µM; TGI (M19-MEL melanoma): 0.016 µM

Q: Which TGI (DLD-1 colon) does the source give for `CC12O[C@H](c3ccccc3)[C@H](c3ccccc3)N1C(=O)C1(C(=O)OCc3ccccc3)CC12` (stereo partly specified) here?
A: > 100 µM

Q: What about the TGI (SK-MEL-2 melanoma) of the same compound?
A: > 100 µM

Q: And the TGI (HL-60(TB) leukemia)?
A: > 100 µM

Q: What about the TGI (CAKI-1 renal) of the same compound?
A: > 100 µM

Q: What about the TGI (HCC-2998 colon) of the same compound?
A: > 100 µM

Q: And the TGI (ACHN renal)?
A: > 100 µM

Q: What about the TGI (SF-295 CNS) of the same compound?
A: > 100 µM

Q: What about the TGI (UACC-257 melanoma) of the same compound?
A: > 100 µM

Q: What about the TGI (M19-MEL melanoma) of the same compound?
A: > 100 µM

Q: `CCOC(OCC)C(CC)[Se]c1ccccc1[N+](=O)[O-]` (stereo unspecified) was tested. Which TGI (DLD-1 colon) did it give?
A: > 90.2 µM

Q: And the TGI (SK-MEL-2 melanoma)?
A: > 90.4 µM

Q: And the TGI (HL-60(TB) leukemia)?
A: 3.22 µM

Q: What about the TGI (CAKI-1 renal) of the same compound?
A: 88.8 µM

Q: And the TGI (HCC-2998 colon)?
A: 14.3 µM

Q: What about the TGI (ACHN renal) of the same compound?
A: > 100 µM

Q: What about the TGI (HS 578T breast) of the same compound?
A: > 100 µM

Q: And the TGI (SF-295 CNS)?
A: > 22.9 µM

Q: And the TGI (UACC-257 melanoma)?
A: > 94.6 µM

Q: What about the TGI (M19-MEL melanoma) of the same compound?
A: > 100 µM

Q: Which results are given for `O=C([O-])c1ccc2c(c1)-c1nc-2nc2[n-]c(nc3nc(nc4[n-]c(n1)c1ccc(C(=O)[O-])cc41)-c1cc(C(=O)[O-])ccc1-3)c1ccc(C(=O)[O-])cc21.[Fe+2]`?
A: GI50 (DLD-1 colon): > 32.1 µM; TGI (DLD-1 colon): > 50 µM; GI50 (SK-MEL-2 melanoma): > 50 µM; TGI (SK-MEL-2 melanoma): > 50 µM; GI50 (HL-60(TB) leukemia): > 22.9 µM; TGI (HL-60(TB) leukemia): > 30.5 µM; GI50 (CAKI-1 renal): > 50 µM; TGI (CAKI-1 renal): > 50 µM; GI50 (HCC-2998 colon): > 50 µM; TGI (HCC-2998 colon): > 50 µM; GI50 (ACHN renal): > 50 µM; TGI (ACHN renal): > 50 µM; GI50 (SF-295 CNS): > 50 µM; TGI (SF-295 CNS): > 50 µM; GI50 (UACC-257 melanoma): > 50 µM; TGI (UACC-257 melanoma): > 50 µM; GI50 (M19-MEL melanoma): > 31.8 µM; TGI (M19-MEL melanoma): > 50 µM

Q: Which TGI (DLD-1 colon) does the source give for `N/N=C1\c2ccccc2C2/C(=N\N)c3ccccc3C12` (stereo unspecified) here?
A: > 100 µM

Q: And the TGI (SK-MEL-2 melanoma)?
A: > 100 µM

Q: What about the TGI (HL-60(TB) leukemia) of the same compound?
A: > 100 µM

Q: What about the TGI (CAKI-1 renal) of the same compound?
A: > 100 µM

Q: And the TGI (HCC-2998 colon)?
A: > 100 µM

Q: And the TGI (ACHN renal)?
A: > 100 µM

Q: What about the TGI (SF-295 CNS) of the same compound?
A: > 100 µM

Q: What about the TGI (UACC-257 melanoma) of the same compound?
A: > 100 µM

Q: What about the TGI (M19-MEL melanoma) of the same compound?
A: > 100 µM

Q: For `O=C1CC2CCCCC2=C1O` (stereo unspecified), which TGI (DLD-1 colon) is on record?
A: > 100 µM

Q: And the TGI (SK-MEL-2 melanoma)?
A: > 100 µM

Q: What about the TGI (HL-60(TB) leukemia) of the same compound?
A: > 100 µM

Q: What about the TGI (CAKI-1 renal) of the same compound?
A: > 100 µM

Q: And the TGI (HCC-2998 colon)?
A: > 100 µM

Q: What about the TGI (ACHN renal) of the same compound?
A: > 100 µM

Q: And the TGI (SF-295 CNS)?
A: > 100 µM

Q: And the TGI (UACC-257 melanoma)?
A: > 100 µM

Q: What about the TGI (M19-MEL melanoma) of the same compound?
A: > 100 µM

Q: What does the source list for `N#C/C(=C/c1cccnc1)C(=O)c1ccccc1`?
A: TGI (DLD-1 colon): > 100 µM; TGI (SK-MEL-2 melanoma): > 100 µM; TGI (HL-60(TB) leukemia): > 100 µM; TGI (CAKI-1 renal): > 100 µM; TGI (HCC-2998 colon): > 100 µM; TGI (ACHN renal): > 100 µM; TGI (SF-295 CNS): > 100 µM; TGI (UACC-257 melanoma): > 100 µM; TGI (M19-MEL melanoma): > 100 µM

Q: `Cc1cc(N(CCC#N)CCC#N)ccc1/C=C(\NC(=O)/C=C/c1ccccc1)NC(=O)Nc1ccc(Cl)cc1` was tested. Which TGI (DLD-1 colon) did it give?
A: > 100 µM

Q: What about the TGI (SK-MEL-2 melanoma) of the same compound?
A: > 100 µM

Q: What about the TGI (HL-60(TB) leukemia) of the same compound?
A: > 100 µM

Q: What about the TGI (CAKI-1 renal) of the same compound?
A: > 100 µM

Q: And the TGI (HCC-2998 colon)?
A: > 100 µM

Q: And the TGI (ACHN renal)?
A: > 100 µM

Q: What about the TGI (SF-295 CNS) of the same compound?
A: > 100 µM

Q: What about the TGI (UACC-257 melanoma) of the same compound?
A: > 100 µM

Q: What about the TGI (M19-MEL melanoma) of the same compound?
A: > 100 µM

Q: `CCCCCCCCCCCCCC/C(C(=O)OC)=C(/O)C(=O)OCC` was tested. Which TGI (DLD-1 colon) did it give?
A: > 100 µM

Q: What about the TGI (SK-MEL-2 melanoma) of the same compound?
A: 32 µM

Q: And the TGI (HL-60(TB) leukemia)?
A: > 100 µM

Q: And the TGI (CAKI-1 renal)?
A: > 100 µM

Q: And the TGI (HCC-2998 colon)?
A: 37.3 µM

Q: What about the TGI (ACHN renal) of the same compound?
A: > 100 µM

Q: And the TGI (SF-295 CNS)?
A: 40.9 µM

Q: What about the TGI (UACC-257 melanoma) of the same compound?
A: > 100 µM

Q: What about the TGI (M19-MEL melanoma) of the same compound?
A: > 100 µM
